These are literature values, as cited in patent US20200215022A1, “NOVEL CANNABINOID COMPOSITIONS AND METHODS OF TREATING PEDIATRIC EPILEPSY” (TILRAY, INC., priority 2016, published 2020).

The conditions of data set [1]: in vivo.
The next data set concerns the target CYP2C9 (Homo sapiens, UniProt P11712).
The target in another data set is CB2 (Homo sapiens, UniProt P34972). The following applies: Pacher et al., 2006.
The subject of another data set is sodium channel. The following applies: human and animal models.
For the next data set, the target named is T1, CYP2C8 (Homo sapiens, UniProt P10632).
T1 sequence (P10632 1-490): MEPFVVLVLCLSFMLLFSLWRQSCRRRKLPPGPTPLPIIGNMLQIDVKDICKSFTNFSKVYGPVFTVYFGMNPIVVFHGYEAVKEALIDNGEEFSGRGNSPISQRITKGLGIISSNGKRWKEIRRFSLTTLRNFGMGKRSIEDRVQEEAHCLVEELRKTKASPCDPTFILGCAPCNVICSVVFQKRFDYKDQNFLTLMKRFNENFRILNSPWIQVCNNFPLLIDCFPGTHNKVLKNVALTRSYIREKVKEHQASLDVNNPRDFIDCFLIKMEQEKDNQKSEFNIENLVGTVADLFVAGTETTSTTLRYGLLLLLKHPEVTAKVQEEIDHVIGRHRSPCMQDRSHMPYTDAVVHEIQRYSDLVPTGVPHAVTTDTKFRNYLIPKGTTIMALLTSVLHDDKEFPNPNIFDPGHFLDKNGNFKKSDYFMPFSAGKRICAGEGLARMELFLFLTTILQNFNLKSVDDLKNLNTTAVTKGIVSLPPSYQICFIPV

The target of another data set is CYP2C19 (Homo sapiens, UniProt P33261).
CYP2C19, sequence (P33261 whole entry): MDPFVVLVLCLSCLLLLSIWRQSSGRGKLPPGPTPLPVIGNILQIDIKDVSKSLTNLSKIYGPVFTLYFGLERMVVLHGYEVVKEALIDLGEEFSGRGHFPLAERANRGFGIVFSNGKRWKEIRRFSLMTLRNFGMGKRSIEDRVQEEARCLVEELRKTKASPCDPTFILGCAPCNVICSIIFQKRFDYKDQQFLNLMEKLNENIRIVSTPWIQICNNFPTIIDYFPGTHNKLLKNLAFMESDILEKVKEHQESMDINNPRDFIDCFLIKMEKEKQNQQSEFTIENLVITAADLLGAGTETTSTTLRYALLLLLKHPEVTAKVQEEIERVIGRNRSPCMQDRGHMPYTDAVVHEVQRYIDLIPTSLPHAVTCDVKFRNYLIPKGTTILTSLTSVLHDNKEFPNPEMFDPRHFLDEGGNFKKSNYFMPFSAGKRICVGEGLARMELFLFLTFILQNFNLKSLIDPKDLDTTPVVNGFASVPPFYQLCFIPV
In another data set the target is T2, CYP2B6 (Homo sapiens, UniProt P20813).
T2 sequence (P20813 1-491): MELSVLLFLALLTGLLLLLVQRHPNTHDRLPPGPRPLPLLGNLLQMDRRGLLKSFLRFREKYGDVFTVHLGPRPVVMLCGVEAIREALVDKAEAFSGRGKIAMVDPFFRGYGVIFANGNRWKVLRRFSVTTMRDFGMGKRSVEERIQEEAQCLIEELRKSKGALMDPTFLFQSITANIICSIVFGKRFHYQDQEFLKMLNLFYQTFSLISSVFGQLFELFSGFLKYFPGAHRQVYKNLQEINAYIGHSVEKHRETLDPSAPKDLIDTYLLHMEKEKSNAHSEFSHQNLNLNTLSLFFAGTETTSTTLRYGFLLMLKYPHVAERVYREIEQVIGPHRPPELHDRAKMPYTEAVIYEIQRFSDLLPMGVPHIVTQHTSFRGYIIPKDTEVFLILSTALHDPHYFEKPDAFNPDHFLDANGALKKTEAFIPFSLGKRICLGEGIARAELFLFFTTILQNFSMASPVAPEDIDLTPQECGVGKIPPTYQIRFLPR

The target of another data set is CYP3A4 (Homo sapiens, UniProt P08684).
CYP3A4, sequence (P08684 whole entry): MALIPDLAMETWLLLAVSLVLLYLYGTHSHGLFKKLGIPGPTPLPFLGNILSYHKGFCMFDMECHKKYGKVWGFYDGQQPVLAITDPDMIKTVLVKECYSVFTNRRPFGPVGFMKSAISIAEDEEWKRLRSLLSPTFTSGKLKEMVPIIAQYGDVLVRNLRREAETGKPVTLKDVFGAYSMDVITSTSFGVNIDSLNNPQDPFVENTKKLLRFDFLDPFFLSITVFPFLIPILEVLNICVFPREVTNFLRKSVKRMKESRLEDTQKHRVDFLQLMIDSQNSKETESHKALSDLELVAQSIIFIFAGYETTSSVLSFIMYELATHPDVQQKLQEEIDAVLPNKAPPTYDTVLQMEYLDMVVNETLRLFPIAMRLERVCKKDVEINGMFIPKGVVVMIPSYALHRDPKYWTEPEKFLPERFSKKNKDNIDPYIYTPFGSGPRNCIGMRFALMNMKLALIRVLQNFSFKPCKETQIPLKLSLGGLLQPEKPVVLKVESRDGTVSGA

CYP2C9, sequence (P11712 whole entry): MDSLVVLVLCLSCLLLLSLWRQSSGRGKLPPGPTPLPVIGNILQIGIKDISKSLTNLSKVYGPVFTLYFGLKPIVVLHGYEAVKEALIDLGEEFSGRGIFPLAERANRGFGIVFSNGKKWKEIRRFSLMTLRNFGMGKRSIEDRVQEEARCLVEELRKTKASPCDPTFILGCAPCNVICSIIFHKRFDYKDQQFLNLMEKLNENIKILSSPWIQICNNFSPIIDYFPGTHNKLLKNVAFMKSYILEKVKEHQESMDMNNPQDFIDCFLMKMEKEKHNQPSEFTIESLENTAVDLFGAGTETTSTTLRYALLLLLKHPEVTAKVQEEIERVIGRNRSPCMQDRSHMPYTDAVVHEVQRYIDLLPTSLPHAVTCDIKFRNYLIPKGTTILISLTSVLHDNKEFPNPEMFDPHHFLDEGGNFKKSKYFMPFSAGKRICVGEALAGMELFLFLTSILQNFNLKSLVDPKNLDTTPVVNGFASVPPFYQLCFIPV
CB2, sequence (P34972 whole entry, species assumed): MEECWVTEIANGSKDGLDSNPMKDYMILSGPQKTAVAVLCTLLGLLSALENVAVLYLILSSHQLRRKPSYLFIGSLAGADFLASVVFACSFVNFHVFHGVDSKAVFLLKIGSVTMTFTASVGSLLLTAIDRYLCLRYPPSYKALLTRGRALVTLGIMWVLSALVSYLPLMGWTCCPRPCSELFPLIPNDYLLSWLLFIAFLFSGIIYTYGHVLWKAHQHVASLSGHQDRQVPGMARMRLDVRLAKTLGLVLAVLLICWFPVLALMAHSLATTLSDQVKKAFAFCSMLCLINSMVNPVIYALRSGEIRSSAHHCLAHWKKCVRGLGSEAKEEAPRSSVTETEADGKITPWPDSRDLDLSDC

Regarding `C=C(C)[C@@H]1CCC(C)=C[C@H]1c1c(O)cc(CCCCC)cc1O` [CBD, cannabidiol], the Lipid solubility result is on record as “highly lipid soluble”. Besides, in data set [1], the Route of excretion result is “excreted in the urine and feces”; the “Time CBD levels are detected post administration” value is recorded as “up to 8 hours”. For the same molecule, the “Inhibition of CYP2C9” value at CYP2C9 is “potent inhibitor”. In addition, the “Affinity for cannabinoid receptor CB2” value at CB2 is “does not appear to have a great affinity”. In the data set on sodium channel, the Sodium channel block result is “potent sodium channel blockers”. On CYP2C8, the “Inhibition of CYP2C8” value was “potent inhibitor”. Besides, the “Inhibition of CYP2C19” value at CYP2C19 is recorded as “potent inhibitor”. The “Inhibition of CYP2B6” value on CYP2B6 is reported as “potent inhibitor”. Moreover, the “Inhibition of CYP3A4” value on CYP3A4 is “potent inhibitor”.
Regarding `CCCCCc1cc(O)c(C/C=C(\C)CCC=C(C)C)c(O)c1` [CBG, cannabigerol], the Sodium channel block entry in the data set on sodium channel was “potent sodium channel blockers”.
